From ChEMBL document CHEMBL1201862, “PubChem BioAssay data set” (2004)
Values belong to the compound of their own block, whether it stands above or below them. Active and inactive are the calls of the source.

How the values were obtained:
[1] = target: T1, Kappa-type opioid receptor (Homo sapiens, UniProt P41145); assay: SAR analysis of small molecule antagonists of the kappa opioid receptor via a luminescent beta-arrestin assay - Set 5. [Related pubchem assays (depositor defined):AID1778, AID1785]; assay type: functional
[2] = target: T1, Kappa-type opioid receptor; assay: SAR analysis of small molecule antagonists of the kappa opioid receptor via a luminescent beta-arrestin assay - Set 4. [Related pubchem assays (depositor defined):AID1777, AID1778, AID1785, AID1786, AID1966, AID2133, AID2136, AID2285]; assay type: functional
[3] = target: T2, Tyrosine-protein phosphatase non-receptor type 7 (Homo sapiens, UniProt P35236); assay: HTS HePTP Fluorescent Assay using OMFP substrate for In Vitro dose response studies. [Related pubchem assays (depositor defined):AID1059, AID1077, AID1784, AID2068, AID2085, AID435032, AID521]; assay type: functional
T2 sequence (P35236 whole entry): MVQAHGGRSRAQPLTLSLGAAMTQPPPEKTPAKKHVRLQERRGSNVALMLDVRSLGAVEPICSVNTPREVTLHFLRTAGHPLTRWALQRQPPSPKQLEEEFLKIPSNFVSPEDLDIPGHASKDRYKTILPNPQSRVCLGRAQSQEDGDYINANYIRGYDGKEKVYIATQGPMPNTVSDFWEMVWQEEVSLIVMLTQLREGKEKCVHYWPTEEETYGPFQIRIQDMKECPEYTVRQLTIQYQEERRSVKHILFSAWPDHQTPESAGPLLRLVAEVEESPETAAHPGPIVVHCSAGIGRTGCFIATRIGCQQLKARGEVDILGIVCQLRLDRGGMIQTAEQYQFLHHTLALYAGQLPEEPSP

[4] = target: T2, Tyrosine-protein phosphatase non-receptor type 7; assay: HePTP (PTPN7) phosphatase inhibitor potency, SAR follow-up, biochemical, set 2 (AID 449736); assay type: functional
[5] = target: T3, Voltage-gated N-type calcium channel alpha-1B subunit/Amyloid beta A4 precursor protein-binding family A member 1 (Homo sapiens, UniProt Q00975+Q02410); assay type: protein assay
[6] = target: T4, Tyrosine-protein phosphatase non-receptor type 22 (Homo sapiens, UniProt Q9Y2R2); assay: PubChem AID 2140
T4 sequence (Q9Y2R2 whole entry): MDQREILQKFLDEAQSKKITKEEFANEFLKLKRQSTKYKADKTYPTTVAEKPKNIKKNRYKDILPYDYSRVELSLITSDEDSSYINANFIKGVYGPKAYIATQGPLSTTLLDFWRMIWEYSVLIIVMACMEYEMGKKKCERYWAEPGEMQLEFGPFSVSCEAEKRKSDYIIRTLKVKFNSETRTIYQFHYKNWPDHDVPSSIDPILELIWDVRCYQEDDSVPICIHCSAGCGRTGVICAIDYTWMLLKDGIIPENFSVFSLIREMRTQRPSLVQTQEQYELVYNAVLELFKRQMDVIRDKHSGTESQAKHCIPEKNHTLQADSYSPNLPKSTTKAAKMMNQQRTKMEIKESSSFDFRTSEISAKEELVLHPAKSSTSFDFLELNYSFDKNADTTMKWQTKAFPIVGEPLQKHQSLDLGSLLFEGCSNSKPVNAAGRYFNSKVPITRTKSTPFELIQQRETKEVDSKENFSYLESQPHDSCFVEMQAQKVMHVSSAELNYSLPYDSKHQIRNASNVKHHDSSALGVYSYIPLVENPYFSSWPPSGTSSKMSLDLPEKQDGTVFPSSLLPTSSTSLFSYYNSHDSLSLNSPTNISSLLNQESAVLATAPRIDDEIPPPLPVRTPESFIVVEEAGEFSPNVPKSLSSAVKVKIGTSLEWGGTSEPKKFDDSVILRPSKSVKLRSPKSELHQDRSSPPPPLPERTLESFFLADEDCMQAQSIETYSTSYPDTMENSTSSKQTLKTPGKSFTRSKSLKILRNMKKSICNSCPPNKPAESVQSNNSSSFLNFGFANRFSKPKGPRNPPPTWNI

[7] = target: T4, Tyrosine-protein phosphatase non-receptor type 22; assay: SAR LYP1 Fluorescent Assay using pCAP substrate for In Vitro dose response studies - Set 2. [Related pubchem assays (depositor defined):AID1779, AID1784, AID2135, AID449727]; assay type: functional
[8] = target: T4, Tyrosine-protein phosphatase non-receptor type 22; assay: LYP (PTPN22) phosphatase inhibitor potency, SAR follow-up, biochemical, pCAP fluorogenic substrate, fluorescence, set 3 (AID 449727); assay type: functional
[9] = target: T4, Tyrosine-protein phosphatase non-receptor type 22; assay: PubChem AID 2135
[10] = target: T4, Tyrosine-protein phosphatase non-receptor type 22; assay type: functional
[11] = target: T4, Tyrosine-protein phosphatase non-receptor type 22; assay: SAR LYP1 Fluorescent Assay using OMFP substrate for In Vitro dose response studies - Set 3. [Related pubchem assays (depositor defined):AID1779, AID1784, AID2140, AID2686]; assay type: functional
[12] = target: T4, Tyrosine-protein phosphatase non-receptor type 22; assay: LYP1 Fluorescent Assay using OMFP substrate for In Vitro dose response studies. [Related pubchem assays (depositor defined):AID1779, AID1784, AID435024]
[13] = target: T2, Tyrosine-protein phosphatase non-receptor type 7; assay type: functional
[14] = HEp-2 cell cytotoxicity, dose response, cytotoxicity control for RSV inhibitor project, HTS (AID 2410); assay type: functional; conditions: human respiratory syncytial virus
[15] = target: T4, Tyrosine-protein phosphatase non-receptor type 22; assay: inhibitors of LYP phosphatase, biochemical, fluorescence intensity, uHTS (AID 1779)
[16] = target: T4, Tyrosine-protein phosphatase non-receptor type 22; assay type: functional; remark: listed apart in the source
[17] = target: T4, Tyrosine-protein phosphatase non-receptor type 22; assay: SAR LYP1 Fluorescent Assay using OMFP substrate for In Vitro dose response studies - Set 2. [Related pubchem assays (depositor defined):AID1779, AID1784, AID2140, AID449726, AID488869]; assay type: functional
[18] = target: Tyrosine-protein phosphatase non-receptor type 12 (Homo sapiens, UniProt Q05209); assay: SAR Selectivity Analysis of small molecule inhibitors of PEST using pCAP in a fluorescence assay. [Related pubchem assays (depositor defined):AID1779, AID1784, AID2135]; assay type: functional
[19] = target: T3, Voltage-gated N-type calcium channel alpha-1B subunit/Amyloid beta A4 precursor protein-binding family A member 1; assay type: protein assay; remark: listed apart in the source
[20] = target: T1, Kappa-type opioid receptor; assay: KOR agonist analogs, imaging readout, SAR follow-up, image-based (AID 2359); assay type: functional
Mu-type opioid receptor [21] = target: T5, Mu-type opioid receptor (Homo sapiens, UniProt P35372); assay: MOR antagonists, SAR follow-up, image-based (AID 2420); assay type: functional;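 further: compounds added before stimulation of receptor with agonist DAMGO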
[22] = target: T1, Kappa-type opioid receptor; assay: kappa opioid receptor blockers, cell-based, luminescence, beta-arrestin, SAR follow-up (AID 2285); assay type: functional
[23] = target: T6, Delta-type opioid receptor (Homo sapiens, UniProt P41143); assay: DOR agonists, SAR follow-up, image-based (AID 2370); assay type: functional
[24] = target: T6, Delta-type opioid receptor; assay: DOR antagonists, SAR follow-up, image-based (AID 2357); assay type: functional
Mu-type opioid receptor [25] = target: T5, Mu-type opioid receptor; assay: MOR agonists by imaging, SAR follow-up, image-based (AID 2352); assay type: functional
[26] = target: T1, Kappa-type opioid receptor; assay: KOR antagonists by imaging, SAR follow-up, image-based (AID 2348); assay type: functional
[27] = target: Intestinal-type alkaline phosphatase (Homo sapiens, UniProt P09923); assay: activation of human intestinal alkaline phosphatase – biochemical, dose response (AID 488873); assay type: functional
[28] = target: T7, Alkaline phosphatase, tissue-nonspecific isozyme (Homo sapiens, UniProt P05186); assay: TNAP enzyme activators, dose response, selectivity assay for mouse IAP activator project, biochemical, TNAP isozyme, mouse IAP uHTS hits (AID 488880); assay type: functional
T7 sequence (P05186 whole entry): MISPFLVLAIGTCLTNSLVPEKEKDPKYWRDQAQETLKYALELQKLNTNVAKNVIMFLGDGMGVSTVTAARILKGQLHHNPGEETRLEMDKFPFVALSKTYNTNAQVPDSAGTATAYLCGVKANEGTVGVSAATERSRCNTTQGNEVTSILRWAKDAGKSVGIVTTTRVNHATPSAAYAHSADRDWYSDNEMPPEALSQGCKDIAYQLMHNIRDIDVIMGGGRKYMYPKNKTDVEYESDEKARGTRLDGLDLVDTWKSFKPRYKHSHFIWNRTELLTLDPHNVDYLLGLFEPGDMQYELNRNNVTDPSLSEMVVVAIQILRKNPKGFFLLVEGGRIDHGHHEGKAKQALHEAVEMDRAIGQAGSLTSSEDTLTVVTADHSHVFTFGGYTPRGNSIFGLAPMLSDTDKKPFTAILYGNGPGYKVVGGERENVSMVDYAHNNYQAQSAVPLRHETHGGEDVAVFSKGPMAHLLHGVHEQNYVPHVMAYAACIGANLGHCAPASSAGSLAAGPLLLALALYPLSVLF

[29] = target: Intestinal-type alkaline phosphatase (Mus musculus, UniProt P24822); assay: mouse intestinal alkaline phosphatase activators, dose response, biochemical, luminescence, uHTS hits (AID 488783); assay type: functional
Large T antigen = Large T antigen (Simian virus 40, UniProt P03070); assay type: functional, Betapolyomavirus macacae;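 further: Confirmatory-stage PubChem screen for compounds that inhibit SV40 T antigen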

T1 sequence (P41145 whole entry): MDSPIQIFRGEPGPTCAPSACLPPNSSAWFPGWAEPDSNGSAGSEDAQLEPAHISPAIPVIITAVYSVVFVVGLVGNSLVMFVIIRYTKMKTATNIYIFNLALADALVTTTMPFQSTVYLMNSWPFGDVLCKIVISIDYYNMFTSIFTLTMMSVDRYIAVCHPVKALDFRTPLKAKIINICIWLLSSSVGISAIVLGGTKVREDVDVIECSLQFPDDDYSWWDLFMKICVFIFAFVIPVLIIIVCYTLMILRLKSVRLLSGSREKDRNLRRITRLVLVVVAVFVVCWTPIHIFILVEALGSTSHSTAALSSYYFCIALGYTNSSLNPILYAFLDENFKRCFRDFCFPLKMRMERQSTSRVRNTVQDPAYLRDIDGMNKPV
T5 sequence (P35372 whole entry): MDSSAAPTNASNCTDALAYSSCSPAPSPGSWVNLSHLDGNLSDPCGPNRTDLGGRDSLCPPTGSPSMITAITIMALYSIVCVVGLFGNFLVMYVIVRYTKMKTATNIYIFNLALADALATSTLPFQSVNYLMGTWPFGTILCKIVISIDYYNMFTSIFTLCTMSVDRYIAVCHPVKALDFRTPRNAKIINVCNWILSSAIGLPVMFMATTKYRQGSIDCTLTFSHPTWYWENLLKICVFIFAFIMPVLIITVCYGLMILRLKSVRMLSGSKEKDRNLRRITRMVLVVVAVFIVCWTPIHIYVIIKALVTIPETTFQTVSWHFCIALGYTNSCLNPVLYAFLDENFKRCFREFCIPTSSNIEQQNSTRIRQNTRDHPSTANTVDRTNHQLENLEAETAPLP
T3 sequence (Q00975 whole entry): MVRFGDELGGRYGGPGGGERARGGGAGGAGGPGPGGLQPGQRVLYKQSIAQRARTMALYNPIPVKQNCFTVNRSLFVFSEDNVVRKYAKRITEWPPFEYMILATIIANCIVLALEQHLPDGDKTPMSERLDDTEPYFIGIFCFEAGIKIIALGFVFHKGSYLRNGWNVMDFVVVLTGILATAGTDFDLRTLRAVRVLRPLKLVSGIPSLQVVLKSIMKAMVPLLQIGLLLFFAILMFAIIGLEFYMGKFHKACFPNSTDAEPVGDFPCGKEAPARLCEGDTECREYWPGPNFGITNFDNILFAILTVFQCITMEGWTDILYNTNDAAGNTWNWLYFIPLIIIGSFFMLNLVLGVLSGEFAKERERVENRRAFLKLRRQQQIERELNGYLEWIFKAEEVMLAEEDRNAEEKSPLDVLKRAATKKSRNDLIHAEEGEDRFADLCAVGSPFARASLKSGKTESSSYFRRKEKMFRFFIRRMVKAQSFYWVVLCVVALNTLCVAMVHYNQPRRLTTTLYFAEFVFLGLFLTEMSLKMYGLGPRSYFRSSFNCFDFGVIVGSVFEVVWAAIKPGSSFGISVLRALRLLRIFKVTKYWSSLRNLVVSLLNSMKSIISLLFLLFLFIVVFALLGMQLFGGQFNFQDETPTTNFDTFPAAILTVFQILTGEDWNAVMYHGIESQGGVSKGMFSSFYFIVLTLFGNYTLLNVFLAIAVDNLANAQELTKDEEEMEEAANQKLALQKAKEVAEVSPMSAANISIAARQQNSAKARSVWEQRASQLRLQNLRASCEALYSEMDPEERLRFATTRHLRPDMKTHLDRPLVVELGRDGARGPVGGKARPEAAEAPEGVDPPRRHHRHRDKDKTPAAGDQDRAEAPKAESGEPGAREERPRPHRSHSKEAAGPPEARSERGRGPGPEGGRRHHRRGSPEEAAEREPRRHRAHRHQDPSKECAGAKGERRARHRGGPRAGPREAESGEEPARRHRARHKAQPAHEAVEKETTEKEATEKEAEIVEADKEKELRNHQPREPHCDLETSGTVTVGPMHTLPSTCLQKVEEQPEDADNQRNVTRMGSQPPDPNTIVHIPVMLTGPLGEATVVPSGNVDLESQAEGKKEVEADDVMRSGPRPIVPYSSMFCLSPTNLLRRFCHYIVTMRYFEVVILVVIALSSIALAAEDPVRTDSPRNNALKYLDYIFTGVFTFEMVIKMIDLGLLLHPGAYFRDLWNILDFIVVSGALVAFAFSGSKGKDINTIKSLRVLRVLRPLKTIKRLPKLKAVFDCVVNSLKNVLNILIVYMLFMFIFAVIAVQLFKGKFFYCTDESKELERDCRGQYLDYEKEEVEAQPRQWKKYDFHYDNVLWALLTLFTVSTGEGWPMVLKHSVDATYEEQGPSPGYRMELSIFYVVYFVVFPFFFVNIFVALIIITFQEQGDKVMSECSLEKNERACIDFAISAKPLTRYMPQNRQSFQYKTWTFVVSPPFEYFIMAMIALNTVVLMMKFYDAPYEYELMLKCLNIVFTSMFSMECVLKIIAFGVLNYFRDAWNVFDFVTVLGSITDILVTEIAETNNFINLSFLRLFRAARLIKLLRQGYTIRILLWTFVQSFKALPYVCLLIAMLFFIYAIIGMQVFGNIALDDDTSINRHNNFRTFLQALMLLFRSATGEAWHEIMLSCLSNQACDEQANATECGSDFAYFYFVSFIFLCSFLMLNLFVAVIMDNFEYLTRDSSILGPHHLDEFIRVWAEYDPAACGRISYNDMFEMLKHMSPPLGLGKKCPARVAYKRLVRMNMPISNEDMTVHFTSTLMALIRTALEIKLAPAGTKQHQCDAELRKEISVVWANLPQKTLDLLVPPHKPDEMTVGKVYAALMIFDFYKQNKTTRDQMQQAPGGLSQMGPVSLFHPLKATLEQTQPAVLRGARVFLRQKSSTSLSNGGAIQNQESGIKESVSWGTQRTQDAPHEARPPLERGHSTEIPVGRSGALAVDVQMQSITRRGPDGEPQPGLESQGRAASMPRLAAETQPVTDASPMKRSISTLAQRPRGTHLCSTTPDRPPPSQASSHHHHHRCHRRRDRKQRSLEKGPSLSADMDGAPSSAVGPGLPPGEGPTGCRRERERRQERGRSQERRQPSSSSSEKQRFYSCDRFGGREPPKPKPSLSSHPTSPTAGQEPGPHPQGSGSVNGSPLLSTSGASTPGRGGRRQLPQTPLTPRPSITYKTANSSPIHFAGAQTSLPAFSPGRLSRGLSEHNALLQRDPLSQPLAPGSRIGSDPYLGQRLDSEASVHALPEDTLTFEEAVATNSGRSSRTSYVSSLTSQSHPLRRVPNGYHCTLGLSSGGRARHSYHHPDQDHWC
T3 sequence (Q02410 whole entry): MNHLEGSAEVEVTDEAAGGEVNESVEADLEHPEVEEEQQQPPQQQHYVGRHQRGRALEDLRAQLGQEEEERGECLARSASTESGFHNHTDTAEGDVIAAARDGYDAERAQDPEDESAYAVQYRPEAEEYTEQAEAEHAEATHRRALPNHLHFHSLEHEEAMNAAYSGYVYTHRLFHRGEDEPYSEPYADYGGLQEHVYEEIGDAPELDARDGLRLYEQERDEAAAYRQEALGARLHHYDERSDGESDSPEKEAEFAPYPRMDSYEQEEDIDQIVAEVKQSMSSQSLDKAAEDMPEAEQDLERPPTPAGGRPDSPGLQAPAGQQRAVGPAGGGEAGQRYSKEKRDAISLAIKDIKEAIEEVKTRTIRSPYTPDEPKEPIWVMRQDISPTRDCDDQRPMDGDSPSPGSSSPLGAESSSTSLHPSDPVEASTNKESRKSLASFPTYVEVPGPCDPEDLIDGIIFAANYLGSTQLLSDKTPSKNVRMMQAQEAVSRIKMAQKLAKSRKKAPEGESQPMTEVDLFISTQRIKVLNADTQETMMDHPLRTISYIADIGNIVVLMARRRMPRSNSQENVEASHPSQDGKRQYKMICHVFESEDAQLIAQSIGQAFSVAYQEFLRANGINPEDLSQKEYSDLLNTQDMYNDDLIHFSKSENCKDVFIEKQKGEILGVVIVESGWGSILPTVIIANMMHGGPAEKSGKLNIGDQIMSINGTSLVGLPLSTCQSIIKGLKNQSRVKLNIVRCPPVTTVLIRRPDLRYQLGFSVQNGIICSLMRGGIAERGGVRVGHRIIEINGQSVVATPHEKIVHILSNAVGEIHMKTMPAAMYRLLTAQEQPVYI
T6 sequence (P41143 whole entry): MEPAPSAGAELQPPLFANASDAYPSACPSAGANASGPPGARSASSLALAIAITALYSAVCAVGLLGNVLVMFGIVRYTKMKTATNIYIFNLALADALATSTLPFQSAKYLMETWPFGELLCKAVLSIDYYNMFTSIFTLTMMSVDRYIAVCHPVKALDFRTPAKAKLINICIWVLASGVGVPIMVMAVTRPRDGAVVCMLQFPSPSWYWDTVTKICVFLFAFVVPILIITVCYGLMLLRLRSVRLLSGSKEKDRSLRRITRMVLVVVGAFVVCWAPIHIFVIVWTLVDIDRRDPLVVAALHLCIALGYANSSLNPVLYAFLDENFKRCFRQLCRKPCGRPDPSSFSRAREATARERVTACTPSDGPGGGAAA
Sequence of Intestinal-type alkaline phosphatase (Mus musculus, UniProt P24822) (P24822 whole entry): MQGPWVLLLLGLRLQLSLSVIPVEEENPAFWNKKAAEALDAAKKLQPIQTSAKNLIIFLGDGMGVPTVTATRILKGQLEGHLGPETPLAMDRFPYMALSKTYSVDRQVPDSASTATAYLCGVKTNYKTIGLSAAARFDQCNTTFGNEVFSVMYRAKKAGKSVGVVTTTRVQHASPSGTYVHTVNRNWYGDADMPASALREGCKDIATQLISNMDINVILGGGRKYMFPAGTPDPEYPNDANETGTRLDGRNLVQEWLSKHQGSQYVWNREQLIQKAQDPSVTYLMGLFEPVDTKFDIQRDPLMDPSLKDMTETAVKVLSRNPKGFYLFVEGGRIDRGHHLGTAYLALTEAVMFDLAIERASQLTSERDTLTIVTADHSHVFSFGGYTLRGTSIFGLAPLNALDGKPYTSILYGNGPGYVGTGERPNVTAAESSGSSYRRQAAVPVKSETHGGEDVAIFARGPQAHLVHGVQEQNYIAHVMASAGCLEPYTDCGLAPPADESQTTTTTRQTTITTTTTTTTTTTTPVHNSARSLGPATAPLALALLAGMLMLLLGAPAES

IC50 [1]: 0.452 µM (active) | IC50 [2]: 1.66 µM (active)
Structure (SMILES): COc1ccc(CN(CCNC(=O)c2ccc(CNS(=O)(=O)Cc3ccccc3)cc2)C(C)C)cc1

IC50 [3]: 8.8 µM (active) | IC50 [4]: 0.481 µM (active) | IC50 [5]: 13.7 µM (active) | IC50 [6]: 7.71 µM (active) | IC50 [7]: 1.6 µM (active) | IC50 [8]: 4.86 µM (active) | IC50 [9]: 2.66 µM (active) | IC50 [10]: 15.7 µM (active) | IC50 [11]: 20.5 µM (active) | IC50 [12]: 18.8 µM (active) | IC50 [13]: 14.6 µM (active) | IC50 [15]: 12.6 µM (active) | IC50 [16]: 2.61 µM (active) | IC50 [17]: 3.15 µM (active) | IC50 [18]: 1.65 µM (active) | IC50 [19]: > 50 µM (inactive)
Structure (SMILES): N#C/C(=C/c1ccc(OCc2ccc(C(=O)O)cc2)c(Br)c1)c1cccc(F)c1
CC50 [14]: > 50 µM (active)

EC50 [20]: > 32 µM (inactive) | IC50 (Mu-type opioid receptor [21]): > 32 µM (inactive) | IC50 [22]: 3.54 µM (active) | EC50 [23]: 30.7 µM (inactive) | IC50 [24]: > 32 µM (inactive) | EC50 (Mu-type opioid receptor [25]): 25.3 µM (inactive) | IC50 [26]: 3.62 µM (active)
Structure (SMILES): CCC(=NNc1ccnc2cc(Cl)ccc12)c1ccc(O)cc1

EC50 [27]: 81.5 µM (active) | EC50 [28]: 88.5 µM (active) | EC50 [29]: 85 µM (active) | IC50 (Large T antigen): 15.9 µM (active)
Structure (SMILES): N#C/C(=C\c1coc2ccc(O)cc2c1=O)C(=O)/N=c1\[nH]c2ccccc2s1
